Measured values taken from PubChem BioAssay AID248 (DTP/NCI, 2004).
Toxic doses and inconclusive results are not listed. No stated cut-off is given here; in the data, active means T/C of 150% or more; inactive means T/C below 125%.

System: L1210 leukemia ip in BDF1 mice, survival T/C
Experiment: NCI In Vivo Anticancer Drug Screen. Data for tumor model L1210 Leukemia (intraperitoneal) in B6D2F1 (BDF1) mice
Conditions: endpoint: mean survival time, higher = longer survival
Procedure, shortened: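 In this screen, tumor-bearing mice given compound are compared to those given vehicle, and their survival values are reported as a treated-to-control quotient.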

[1] = dose: 100.0 mg/kg/injection, schedule: Q01DX001 (ip), vehicle: saline
[2] = dose: 100.0 mg/kg/injection, schedule: Q01DX009 (ip), vehicle: other
[3] = dose: 100.0 mg/kg/injection, schedule: Q01DX009 (ip), vehicle: saline with Tween-80
[4] = dose: 100.0 mg/kg/injection, schedule: Q04DX003 (ip), vehicle: saline with Tween-80
[5] = dose: 100.0 mg/kg/injection, schedule: Q04DX003 (ip), vehicle: saline
[6] = dose: 200.0 mg/kg/injection, schedule: Q01DX001 (ip), vehicle: saline
[7] = dose: 200.0 mg/kg/injection, schedule: Q01DX009 (ip), vehicle: other
[8] = dose: 200.0 mg/kg/injection, schedule: Q01DX009 (ip), vehicle: saline with Tween-80
[9] = dose: 200.0 mg/kg/injection, schedule: Q04DX003 (ip), vehicle: saline with Tween-80
[10] = dose: 200.0 mg/kg/injection, schedule: Q04DX003 (ip), vehicle: saline
[11] = dose: 400.0 mg/kg/injection, schedule: Q01DX009 (ip), vehicle: other
[12] = dose: 400.0 mg/kg/injection, schedule: Q01DX009 (ip), vehicle: saline with Tween-80
[13] = dose: 400.0 mg/kg/injection, schedule: Q04DX003 (ip), vehicle: saline
[14] = dose: 100.0 mg/kg/injection, schedule: Q01DX009 (ip), vehicle: saline
[15] = dose: 200.0 mg/kg/injection, schedule: Q01DX009 (ip), vehicle: saline
[16] = dose: 400.0 mg/kg/injection, schedule: Q01DX009 (ip), vehicle: saline
[17] = dose: 100.0 mg/kg/injection, schedule: Q04DX002 (ip), vehicle: Klucel (hydroxypropylcellulose) (HPC)
[18] = dose: 200.0 mg/kg/injection, schedule: Q04DX002 (ip), vehicle: Klucel (hydroxypropylcellulose) (HPC)
[19] = dose: 400.0 mg/kg/injection, schedule: Q04DX002 (ip), vehicle: Klucel (hydroxypropylcellulose) (HPC)
[20] = dose: 100.0 mg/kg/injection, schedule: Q01DX001 (ip), vehicle: Klucel (hydroxypropylcellulose) (HPC)
[21] = dose: 200.0 mg/kg/injection, schedule: Q01DX001 (ip), vehicle: Klucel (hydroxypropylcellulose) (HPC)
[22] = dose: 400.0 mg/kg/injection, schedule: Q01DX001 (ip), vehicle: Klucel (hydroxypropylcellulose) (HPC)
[23] = dose: 100.0 mg/kg/injection, schedule: Q04DX003 (ip), vehicle: Klucel (hydroxypropylcellulose) (HPC)
[24] = dose: 200.0 mg/kg/injection, schedule: Q04DX003 (ip), vehicle: Klucel (hydroxypropylcellulose) (HPC)
[25] = dose: 400.0 mg/kg/injection, schedule: Q04DX003 (ip), vehicle: Klucel (hydroxypropylcellulose) (HPC)
[26] = dose: 100.0 mg/kg/injection, schedule: Q01DX009 (ip), vehicle: Klucel (hydroxypropylcellulose) (HPC)
[27] = dose: 200.0 mg/kg/injection, schedule: Q01DX009 (ip), vehicle: Klucel (hydroxypropylcellulose) (HPC)
[28] = dose: 400.0 mg/kg/injection, schedule: Q01DX009 (ip), vehicle: Klucel (hydroxypropylcellulose) (HPC)
[29] = dose: 400.0 mg/kg/injection, schedule: Q04DX003 (ip), vehicle: saline with Tween-80

Measured: T/C

CC(C)(C)C(=O)CC(=O)C(C)(C)C
inactive: [1] 101 % of control | [2] 92 % of control | [3] 91 % of control | dose: 100.0 mg/kg/injection, schedule: Q04DX002 (ip), vehicle: other 102 % of control | dose: 100.0 mg/kg/injection, schedule: Q04DX002 (ip), vehicle: saline 116 % of control | [4] 103 % of control | [5] 98 % of control | [6] 110 % of control | [7] 97 % of control | [8] 97 % of control | dose: 200.0 mg/kg/injection, schedule: Q04DX002 (ip), vehicle: other 97 % of control | dose: 200.0 mg/kg/injection, schedule: Q04DX002 (ip), vehicle: saline 101 % of control | [9] 103 % of control | [10] 103 % of control | dose: 400.0 mg/kg/injection, schedule: Q01DX001 (ip), vehicle: saline 102 % of control | [11] 97 % of control | [12] 91 % of control | dose: 400.0 mg/kg/injection, schedule: Q04DX002 (ip), vehicle: other 102 % of control | dose: 400.0 mg/kg/injection, schedule: Q04DX002 (ip), vehicle: saline 108 % of control | [13] 95 % of control

O=C(O)CSC(CC(=O)O)C(F)(F)C(F)(F)C(F)(F)F (stereo not given)
inactive: [14] 100 % of control | [5] 96 % of control | [15] 97 % of control | [10] 98 % of control | [16] 104 % of control | [13] 93 % of control

CCCCCC[N+](C)(C)CCOC(=O)C1C2CC3OC(=O)C1C3C2 (stereo not given)
inactive: [5] 97 % of control

COC(=O)C(=Cc1ccccc1)C(=O)OC
inactive: [17] 95 % of control | [18] 95 % of control | [19] 92 % of control

Cc1[nH]c(=O)n(C)c(=O)c1C
inactive: [20] 109 % of control | [21] 106 % of control | [22] 104 % of control

COc1ccc(/C=C(\C#N)c2cccc3ccccc23)cc1
inactive: [23] 98 % of control | [24] 105 % of control | [25] 90 % of control

CSc1nsc(N)n1
inactive: dose: 75.0 mg/kg/injection, schedule: Q01DX001 (ip), vehicle: other 102 % of control | [23] 100 % of control | dose: 150.0 mg/kg/injection, schedule: Q01DX001 (ip), vehicle: other 100 % of control | [24] 100 % of control | dose: 300.0 mg/kg/injection, schedule: Q01DX001 (ip), vehicle: other 103 % of control | [25] 107 % of control

O=C(O)c1cc([N+](=O)[O-])ccc1Br
inactive: dose: 50.0 mg/kg/injection, schedule: Q01DX009 (ip), vehicle: Klucel (hydroxypropylcellulose) (HPC) 89 % of control | [26] 86 % of control | [27] 93 % of control

CC(=O)OCC1OC(SP(C)C)C(OC(C)=O)C(OC(C)=O)C1OC(C)=O (stereo not given)
inactive: [20] 101 % of control | [21] 98 % of control | [22] 96 % of control

CC(=O)Nc1c(C)c(NC(C)=O)c(C)c(NC(C)=O)c1C
inactive: dose: 75.0 mg/kg/injection, schedule: Q01DX001 (ip), vehicle: Klucel (hydroxypropylcellulose) (HPC) 90 % of control | dose: 75.0 mg/kg/injection, schedule: Q01DX009 (ip), vehicle: Klucel (hydroxypropylcellulose) (HPC) 94 % of control | dose: 150.0 mg/kg/injection, schedule: Q01DX001 (ip), vehicle: Klucel (hydroxypropylcellulose) (HPC) 101 % of control | dose: 300.0 mg/kg/injection, schedule: Q01DX001 (ip), vehicle: Klucel (hydroxypropylcellulose) (HPC) 92 % of control

Nn1cn[nH]c1=S
inactive: [5] 98 % of control | [10] 103 % of control | [13] 98 % of control

NC(=O)C(Cc1ccc(O)cc1)NC(=O)c1ccccc1 (stereo not given)
inactive: [26] 95 % of control | [23] 105 % of control | [27] 90 % of control | [24] 102 % of control | [28] 93 % of control | [25] 94 % of control

CCOC(=O)/C(=C\c1ccc2c(c1)OCO2)NC(=O)c1ccccc1
inactive: dose: 50.0 mg/kg/injection, schedule: Q01DX009 (ip), vehicle: saline 102 % of control | [14] 102 % of control | [5] 98 % of control | [15] 118 % of control | [10] 92 % of control | [16] 100 % of control | [13] 92 % of control

Cc1cc(Cl)c(Cl)cc1NC(=O)C(Br)C(Br)c1ccccc1 (stereo not given)
inactive: [2] 92 % of control | [7] 92 % of control | [11] 92 % of control

CCc1nc(NS(=O)(=O)c2ccc(N)cc2)nc(-c2ccccc2)c1-c1ccccc1O
inactive: [17] 87 % of control | [18] 91 % of control | [19] 95 % of control

C(=C\c1nc2ccccc2s1)/c1ccccc1
inactive: [5] 103 % of control | [10] 93 % of control | [13] 104 % of control

CC1(C)C(N2CCOCC2)CS1(=O)=O (stereo not given)
inactive: dose: 50.0 mg/kg/injection, schedule: Q01DX009 (ip), vehicle: saline with Tween-80 101 % of control | [3] 103 % of control | [4] 94 % of control | [8] 104 % of control | [9] 88 % of control

COc1ccc(Cl)cc1CC=O
inactive: dose: 100.0 mg/kg/injection, schedule: Q01DX001 (ip), vehicle: carboxymethylcellulose (CMC) 118 % of control | dose: 200.0 mg/kg/injection, schedule: Q01DX001 (ip), vehicle: carboxymethylcellulose (CMC) 118 % of control | dose: 400.0 mg/kg/injection, schedule: Q01DX001 (ip), vehicle: carboxymethylcellulose (CMC) 114 % of control

CC(=O)[O][Pb]([O]C(C)=O)([O]C(C)=O)[c]1ccccc1
inactive: dose: 6.25 mg/kg/injection, schedule: Q01DX009 (ip), vehicle: gum acacia 102 % of control | dose: 12.5 mg/kg/injection, schedule: Q01DX009 (ip), vehicle: gum acacia 98 % of control | dose: 25.0 mg/kg/injection, schedule: Q01DX009 (ip), vehicle: gum acacia 95 % of control | dose: 50.0 mg/kg/injection, schedule: Q01DX009 (ip), vehicle: gum acacia 103 % of control | [1] 97 % of control | dose: 100.0 mg/kg/injection, schedule: Q04DX002 (ip), vehicle: gum acacia 107 % of control | [6] 103 % of control | dose: 200.0 mg/kg/injection, schedule: Q04DX002 (ip), vehicle: gum acacia 103 % of control

CC1CCCCC1NC(=O)NCCOC(=O)OCCNC(=O)NC1CCCCC1C (stereo not given)
inactive: [3] 95 % of control | [4] 100 % of control | [8] 95 % of control | [9] 91 % of control | [12] 90 % of control | [29] 86 % of control

NC(=O)c1nnc(-c2ccc(Cl)cc2)[nH]c1=O
inactive: [4] 98 % of control | [9] 98 % of control | [29] 98 % of control

C=C1CCC(C)(C2(c3ccccc3)OCCO2)CC1
inactive: dose: 100.0 mg/kg/injection, schedule: Q04DX002 (ip), vehicle: saline with Tween-80 98 % of control | dose: 200.0 mg/kg/injection, schedule: Q04DX002 (ip), vehicle: saline with Tween-80 95 % of control | dose: 400.0 mg/kg/injection, schedule: Q04DX002 (ip), vehicle: saline with Tween-80 91 % of control

CCc1ccccc1OS(=O)(=O)c1ccc([N+](=O)[O-])cc1
inactive: [26] 109 % of control | [23] 92 % of control | [27] 102 % of control | [24] 100 % of control | [28] 102 % of control | [25] 100 % of control

Nc1nc(C=O)c(-c2cccc3ccccc23)c(=O)[nH]1
inactive: [3] 112 % of control | [8] 94 % of control

O=S1Oc2ccccc2O1
inactive: dose: 75.0 mg/kg/injection, schedule: Q01DX001 (ip), vehicle: saline 117 % of control | dose: 150.0 mg/kg/injection, schedule: Q01DX001 (ip), vehicle: saline 103 % of control
